Patent publication US20040043903A1, “2-Aryl-5-trifluoromethylpyridines” (priority 2000, published 2004)

Experiments:
Assay in all cases: post-emergence herbicidal action, greenhouse experiments
SETFA = format: in vivo, giant foxtail; conditions: for Harmful plant/action (post-emergence herbicidal action): scale 0 to 100
Excerpt: (§1) The culture containers used were plastic pots with loamy sand with approximately 3.0% humus as substrate. The seeds of the test plants were sown separately for each species.
(§2) For the purposes of the post-emergence treatment, the test plants were first grown to a height of 3 to 15 cm, depending on the growth habit, and only then treated with the active ingredients which were suspended or emulsified in water. To this end, the test plants were either sown directly and grown on in the same containers, or else they were first grown separately as seedlings and then transplanted into the experimental containers a few days prior to treatment. […]
(§3) The plants were kept at temperatures of 10-25° C. or 20-35° C., depending on the species. The experimental period extended over 2 to 4 weeks. During this time, the plants were tended, and their response to the individual regimes were evaluated.
(§4) For the evaluation, a scale of 0 to 100 was used. 100 means no emergence of the plants, or complete destruction of at least the aerial parts, and 0 means no damage or normal course of growth.
(§5) The plants used in the greenhouse experiments consisted of the following species: […]

BIDPI = format: in vivo, hairy beggarticks; conditions: for Harmful plant/action (post-emergence herbicidal action): scale 0 to 100
Excerpt: as §1, §2, §3, §4, §5

BRAPL = format: in vivo, alexandergrass
Excerpt: as §1
(§6) For the purposes of the post-emergence treatment, the test plants were first grown to a height of 3 to 15 cm, depending on the growth habit, and only then treated with the active ingredients which were suspended or emulsified in water. To this end, the test plants were either sown directly and grown on in the same containers, or else they were first grown separately as seedlings and then transplanted into the experimental containers a few days prior to treatment. The application rate for the post-emergence treatment was 31.3, 15.6, 7.8 and/or 3.9 g of a.s./ha.
as §3, §4, §5

ECHCG = format: in vivo, barnyardgrass
Excerpt: as §1, §6, §3, §4, §5

CHEAL = format: in vivo, lambsquarters; conditions: for Harmful plant/action (post-emergence herbicidal action): scale 0 to 100
Excerpt: as §1, §6, §3, §4, §5

[1] = 7.8 and 3.9 g of a.s./ha, compared with Comparative Example VC
[2] = 7.8 and 3.9 g of a.s./ha, compared with Comparative Example VB
[3] = 31.3 and 15.6 g of a.s./ha, compared with Comparative Example VA
[4] = application rate 15.6 g/ha a.s.
[5] = application rate 31.3 g/ha a.s.

Compound: CCc1nc2c(Cl)cc(F)c(-c3ncc(C(F)(F)F)c(C)c3Cl)c2o1 [ICe.3, 4-Chloro-7-[3-chloro-4-methyl-5-(trifluoromethyl)-2-pyridinyl]-2-ethyl-6-fluoro-1,3-benzoxazole]
- action against the harmful plant compared with Comparative Example (SETFA; [1]): considerably better action
- post-emergence herbicidal action, SETFA (SETFA; application rate 3.9 g/ha a.s.): 100
- post-emergence herbicidal action, SETFA (SETFA; application rate 7.8 g/ha a.s.): 100
- action against the harmful plant compared with Comparative Example (BIDPI; [1]): considerably better action
- post-emergence herbicidal action, BIDPI (BIDPI; application rate 3.9 g/ha a.s.): 100
- post-emergence herbicidal action, BIDPI (BIDPI; application rate 7.8 g/ha a.s.): 100
- action against the harmful plant compared with Comparative Example (BRAPL; [1]): considerably better action
- post-emergence herbicidal action, BRAPL (BRAPL; application rate 3.9 g/ha a.s.): 80
- post-emergence herbicidal action, BRAPL (BRAPL; application rate 7.8 g/ha a.s.): 90

Compound: C#CCN1C(=O)COc2cc(F)c(-c3ncc(C(F)(F)F)cc3Cl)cc21 [VD, reference compound]
- post-emergence herbicidal action, SETFA (SETFA; application rate 1.9 g/ha a.s.): 60
- post-emergence herbicidal action, SETFA (SETFA; application rate 3.9 g/ha a.s.): 90
- post-emergence herbicidal action, BIDPI (BIDPI; application rate 1.9 g/ha a.s.): 50
- post-emergence herbicidal action, BIDPI (BIDPI; application rate 3.9 g/ha a.s.): 55

Compound: C#CCOc1cc(-c2ncc(C(F)(F)F)c(C)c2Cl)c(F)cc1Cl [IAa.10, 2-(2-Fluoro-4-chloro-5-propargyloxyphenyl)-3-chloro-4-methyl-5-trifluoromethylpyridine]
- action against the harmful plant compared with Comparative Example (ECHCG; [2]): considerably better action
- Harmful plant/action (post-emergence herbicidal action) (ECHCG; application rate 3.9 g/ha a.s., scale 0 to 100): 70
- Harmful plant/action (post-emergence herbicidal action) (ECHCG; application rate 7.8 g/ha a.s., scale 0 to 100): 85
- action against the harmful plant compared with Comparative Example (SETFA; [2]): considerably better action
- Harmful plant/action (post-emergence herbicidal action) (SETFA; application rate 3.9 g/ha a.s.): 98
- Harmful plant/action (post-emergence herbicidal action) (SETFA; application rate 7.8 g/ha a.s.): 98
- action against the harmful plant compared with Comparative Example (BIDPI; [2]): considerably better action
- Harmful plant/action (post-emergence herbicidal action) (BIDPI; application rate 3.9 g/ha a.s.): 100
- Harmful plant/action (post-emergence herbicidal action) (BIDPI; application rate 7.8 g/ha a.s.): 100
- Harmful plant/action (post-emergence herbicidal action) (CHEAL; application rate 3.9 g/ha a.s.): 100
- Harmful plant/action (post-emergence herbicidal action) (CHEAL; application rate 7.8 g/ha a.s.): 100

Compound: COc1cc(-c2ncc(C(F)(F)F)c(C)c2Cl)c(F)cc1Cl [IAa.3, 2-(2-fluoro-4-chloro-5-methoxyphenyl-1-yl)-3-chloro-4-methyl-5-trifluoromethylpyridine]
- action against the harmful plant compared with Comparative Example (ECHCG; [3]): considerably better action
- Harmful plant/action (post-emergence herbicidal action) (ECHCG; application rate 15.6 g/ha a.s., scale 0 to 100): 90
- Harmful plant/action (post-emergence herbicidal action) (ECHCG; application rate 31.3 g/ha a.s., scale 0 to 100 (100 = complete destruction, 0 = no damage)): 100
- action against the harmful plant compared with Comparative Example (SETFA; [3]): considerably better action
- Harmful plant/action (post-emergence herbicidal action) (SETFA; [4]): 95
- Harmful plant/action (post-emergence herbicidal action) (SETFA; [5]): 100
- action against the harmful plant compared with Comparative Example (BIDPI; [3]): considerably better action
- Harmful plant/action (post-emergence herbicidal action) (BIDPI; [4]): 60
- Harmful plant/action (post-emergence herbicidal action) (BIDPI; [5]): 60
- action against the harmful plant compared with Comparative Example (CHEAL; [3]): considerably better action
- Harmful plant/action (post-emergence herbicidal action) (CHEAL; [4]): 100
- Harmful plant/action (post-emergence herbicidal action) (CHEAL; [5]): 100

Compound: CCc1nc2c(Cl)cc(F)c(-c3ncc(C(F)(F)F)cc3Cl)c2o1 [VC, reference compound]
- post-emergence herbicidal action, SETFA (SETFA; application rate 3.9 g/ha a.s.): 90
- post-emergence herbicidal action, SETFA (SETFA; application rate 7.8 g/ha a.s.): 95
- post-emergence herbicidal action, BIDPI (BIDPI; application rate 3.9 g/ha a.s.): 50
- post-emergence herbicidal action, BIDPI (BIDPI; application rate 7.8 g/ha a.s.): 55
- post-emergence herbicidal action, BRAPL (BRAPL; application rate 3.9 g/ha a.s.): 40
- post-emergence herbicidal action, BRAPL (BRAPL; application rate 7.8 g/ha a.s.): 55
